One molecule from paper PMC3216861, “Improving L-arabinose utilization of pentose fermenting Saccharomyces cerevisiae cells by heterologous expression of L-arabinose transporting sugar transporters” (Biotechnology for Biofuels, 2011) can be followed below.

One test deals with T1, ScHxt10 (Saccharomyces cerevisiae, UniProt P43581).
T1 construct: gene HXT10; HXT10 under shortened HXT7 promoter on 2-micron plasmid pTHHXT10, expressed in hexose-transporterless strain TSY01
T1 sequence (P43581 1-546): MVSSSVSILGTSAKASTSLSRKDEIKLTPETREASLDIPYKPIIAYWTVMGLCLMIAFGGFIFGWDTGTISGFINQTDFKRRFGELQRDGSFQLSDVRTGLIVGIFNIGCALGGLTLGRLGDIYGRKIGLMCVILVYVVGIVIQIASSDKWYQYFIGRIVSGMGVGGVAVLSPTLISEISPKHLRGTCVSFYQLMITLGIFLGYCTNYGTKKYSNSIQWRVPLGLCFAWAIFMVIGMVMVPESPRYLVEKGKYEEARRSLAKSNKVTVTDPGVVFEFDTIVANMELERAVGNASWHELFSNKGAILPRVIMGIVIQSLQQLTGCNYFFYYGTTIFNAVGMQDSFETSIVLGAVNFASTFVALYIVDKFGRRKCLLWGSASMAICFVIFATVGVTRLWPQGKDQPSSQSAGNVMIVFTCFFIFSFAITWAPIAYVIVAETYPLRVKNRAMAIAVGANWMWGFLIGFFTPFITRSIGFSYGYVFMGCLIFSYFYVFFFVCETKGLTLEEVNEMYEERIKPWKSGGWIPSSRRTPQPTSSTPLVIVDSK
Description: growth complementation of transporter-null L-arabinose-utilizing yeast. The conditions noted are these: 20 g/L L-arabinose plates, 30°C, 10 days, strain TSY01; growth read-out only. The class given is cell-based.

Another test addresses T2, ScHxt9 (Saccharomyces cerevisiae, UniProt P40885).
T2 construct: gene HXT9; HXT9 under shortened HXT7 promoter on 2-micron plasmid pTHHXT9, expressed in hexose-transporterless strain TSY01
T2 sequence (P40885 1-567): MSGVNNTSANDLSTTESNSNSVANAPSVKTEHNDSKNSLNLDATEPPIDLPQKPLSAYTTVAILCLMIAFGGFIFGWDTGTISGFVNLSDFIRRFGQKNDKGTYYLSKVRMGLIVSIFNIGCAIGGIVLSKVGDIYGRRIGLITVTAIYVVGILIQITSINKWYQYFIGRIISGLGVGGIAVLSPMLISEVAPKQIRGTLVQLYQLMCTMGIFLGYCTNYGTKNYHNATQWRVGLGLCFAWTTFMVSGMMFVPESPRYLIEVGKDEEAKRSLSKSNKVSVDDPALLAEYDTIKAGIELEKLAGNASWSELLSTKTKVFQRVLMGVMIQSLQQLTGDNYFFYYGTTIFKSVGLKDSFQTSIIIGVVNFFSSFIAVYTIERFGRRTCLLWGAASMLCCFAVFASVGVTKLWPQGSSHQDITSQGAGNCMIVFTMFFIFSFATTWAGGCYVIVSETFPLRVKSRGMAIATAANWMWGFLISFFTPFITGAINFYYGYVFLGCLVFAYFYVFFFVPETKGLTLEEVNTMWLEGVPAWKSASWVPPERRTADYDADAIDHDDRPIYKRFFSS
The description is as above. Format: cell-based. The conditions noted are these: 20 g/L L-arabinose plates, 30°C, 10 days, strain TSY01; growth read-out only.

On to `OC1OC[C@H](O)[C@H](O)[C@H]1O` (stereo partly drawn) [L-arabinose], for which the “growth complementation of transporter-null L-arabinose-utilizing yeast” value was “Transformants expressing ScGal2, ScHxt9 and ScHxt10 could grow on the L-arabinose medium” at ScHxt10; “Transformants expressing ScGal2, ScHxt9 and ScHxt10 could grow on the L-arabinose medium” at ScHxt9.
